The text below walks through data of ChEMBL document CHEMBL1128428, “Inhibition of matrix metalloproteinases by hydroxamates containing heteroatom-based modifications of the P1' group” (J Med Chem, 1995).

Chain of Neutrophil collagenase (P22894 whole entry): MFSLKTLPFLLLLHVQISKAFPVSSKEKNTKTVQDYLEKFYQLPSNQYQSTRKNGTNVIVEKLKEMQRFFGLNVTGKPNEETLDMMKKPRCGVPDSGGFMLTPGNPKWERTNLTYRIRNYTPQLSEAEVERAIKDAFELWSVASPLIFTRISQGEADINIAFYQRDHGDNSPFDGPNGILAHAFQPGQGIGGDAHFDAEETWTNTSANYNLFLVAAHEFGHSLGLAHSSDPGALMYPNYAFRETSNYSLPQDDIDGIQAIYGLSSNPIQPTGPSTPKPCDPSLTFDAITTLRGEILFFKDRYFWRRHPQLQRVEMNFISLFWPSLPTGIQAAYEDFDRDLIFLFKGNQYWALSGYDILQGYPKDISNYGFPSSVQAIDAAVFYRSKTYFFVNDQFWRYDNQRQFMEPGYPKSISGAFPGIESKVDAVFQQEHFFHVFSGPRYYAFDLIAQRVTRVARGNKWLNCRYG

In the first assay the target is T1, Interstitial collagenase (Homo sapiens, UniProt P03956).
T1 sequence (P03956 whole entry): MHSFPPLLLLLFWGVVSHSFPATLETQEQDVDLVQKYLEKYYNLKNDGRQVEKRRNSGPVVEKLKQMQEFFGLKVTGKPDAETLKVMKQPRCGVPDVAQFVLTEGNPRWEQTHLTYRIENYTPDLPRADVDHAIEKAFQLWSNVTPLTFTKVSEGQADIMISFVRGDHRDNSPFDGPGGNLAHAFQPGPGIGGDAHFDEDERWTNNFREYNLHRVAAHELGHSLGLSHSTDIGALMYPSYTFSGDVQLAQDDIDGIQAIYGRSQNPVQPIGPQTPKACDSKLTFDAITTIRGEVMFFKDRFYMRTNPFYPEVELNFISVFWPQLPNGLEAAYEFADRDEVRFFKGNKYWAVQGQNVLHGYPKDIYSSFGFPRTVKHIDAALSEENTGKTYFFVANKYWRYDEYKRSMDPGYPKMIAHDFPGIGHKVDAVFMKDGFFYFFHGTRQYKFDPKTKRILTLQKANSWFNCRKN
Broadly, the Ki is the equilibrium dissociation constant of an inhibitor or competing ligand from its target. `CC(C)(C)[C@H](NC(=O)[C@H](CCCCOc1ccccc1)CC(=O)NO)C(=O)NCCC(=O)O` came in with a Ki of 140 nM.
Still for that read-out and setting: in the case of `CNC(=O)[C@@H](NC(=O)[C@H](CCCCOc1ccc(C(C)(C)C)cc1)CC(=O)NO)C(C)(C)C` it was 350 nM; in that of `CNC(=O)[C@@H](NC(=O)[C@H](CCCCOc1ccc(Cl)c(Cl)c1)CC(=O)NO)C(C)(C)C`, 95 nM; in that of `CNC(=O)[C@@H](NC(=O)[C@H](CCCCOc1ccccc1)CC(=O)NO)C(C)(C)C`, 3 nM.
With `CC(C)(C)[C@H](NC(=O)[C@H](CCCCOc1ccc(Cl)cc1)CC(=O)NO)C(=O)NCCCN1CCOCC1`, the Ki turned out to be 10 nM.
`CNC(=O)[C@@H](NC(=O)[C@H](CCCCOc1ccc(F)cc1)CC(=O)NO)C(C)(C)C`: affinity was put at a Ki of 11 nM.
Still for that read-out and setting: in the case of `CCCCCc1ccc(OCCCC[C@H](CC(=O)NO)C(=O)N[C@H](C(=O)NC)C(C)(C)C)cc1` it was 1900 nM; in that of `CC(C)(C)[C@H](NC(=O)[C@H](CCCCOc1ccc(Cl)cc1)CC(=O)NO)C(=O)NCCc1ccccc1`, 580 nM.
Same read-out and setting: in the case of `CNC(=O)[C@H](Cc1ccccc1)NC(=O)[C@H](CCCC(=O)NCc1ccccc1)CC(=O)NO` it was 9600 nM.
As for `CC(C)(C)[C@H](NC(=O)[C@H](CCCCOc1ccccc1)CC(=O)NO)C(=O)NCCCC(=O)O`, the Ki worked out at 62 nM.
`CNC(=O)[C@@H](NC(=O)[C@H](CCCCOc1cccc(Cl)c1)CC(=O)NO)C(C)(C)C` yielded a Ki of 143 nM.
As for `CNC(=O)[C@@H](NC(=O)[C@H](CCCCOc1ccc(OC)cc1)CC(=O)NO)C(C)(C)C`, the Ki was under 1 nM.
The compound `CC(C)(C)[C@H](NC(=O)[C@H](CCCCOc1ccc(Cl)cc1)CC(=O)NO)C(=O)NCCc1ccc(S(N)(=O)=O)cc1` registered a Ki of 61 nM.
`CNC(=O)[C@@H](NC(=O)[C@H](CCCCOc1cccc(C)c1)CC(=O)NO)C(C)(C)C` returned a Ki of 16 nM.
`CNC(=O)[C@H](Cc1ccccc1)NC(=O)[C@H](CCCCO)CC(=O)NO` showed a Ki of 64 nM.
As for `CNC(=O)[C@H](Cc1ccccc1)NC(=O)[C@H](CCCC(=O)NCCc1ccccc1)CC(=O)NO`, affinity was put at a Ki of 1300 nM.
On to `CNC(=O)[C@H](Cc1ccccc1)NC(=O)[C@H](CCCCCO)CC(=O)NO`, for which the affinity, expressed as Ki, was 31 nM.
`CC(C)(C)[C@H](NC(=O)[C@H](CCCCOc1ccc(Cl)cc1)CC(=O)NO)C(=O)NCCc1ccccn1`: the Ki is 80 nM.
Same read-out and setting: next, `CCCc1ccc(OCCCC[C@H](CC(=O)NO)C(=O)N[C@H](C(=O)NC)C(C)(C)C)cc1`: 170 nM.
Turning to `CC(C)(C)[C@H](NC(=O)[C@H](CCCCOc1ccc(Cl)cc1)CC(=O)NO)C(=O)NCCN1CCCC1`, the Ki came out at 80 nM.
Compound `CNC(=O)[C@@H](NC(=O)[C@H](CCCCOc1ccc(C(C)C)cc1)CC(=O)NO)C(C)(C)C` displayed a Ki of 30 nM.
`CNC(=O)[C@@H](NC(=O)[C@H](CCCCOc1cccc(OC)c1)CC(=O)NO)C(C)(C)C`: affinity was put at a Ki of 72 nM.

A further assay has as its target Neutrophil collagenase (Homo sapiens, UniProt P22894).
In turn, `CCCC(=O)NCCCC[C@H](CC(=O)NO)C(=O)N[C@@H](Cc1ccccc1)C(=O)NC` returned an inhibition constant Ki of 12 nM.
`CNC(=O)[C@H](Cc1ccccc1)NC(=O)[C@H](CCCCOc1ccccc1)CC(=O)NO` displayed a Ki of under 2 nM.
In turn, `CNC(=O)[C@H](Cc1ccccc1)NC(=O)[C@H](CCCC(=O)NCc1ccccc1)CC(=O)NO` returned an inhibition constant Ki of 30 nM.
The same measure, in the same setting: next, `CNC(=O)[C@H](Cc1ccccc1)NC(=O)[C@H](CCCCCOc1ccccc1)CC(=O)NO`: under 2 nM.
On the same count and under the same terms, next, `CCCNC(=O)CCC[C@H](CC(=O)NO)C(=O)N[C@@H](Cc1ccccc1)C(=O)NC`: 2 nM; `CNC(=O)[C@H](Cc1ccccc1)NC(=O)[C@H](CCCCCOCc1ccccc1)CC(=O)NO`: 2 nM; `CNC(=O)[C@H](Cc1ccccc1)NC(=O)[C@H](CCCC(=O)NCCc1ccccc1)CC(=O)NO`: 32 nM.
For the compound `CNC(=O)[C@H](Cc1ccccc1)NC(=O)[C@H](CCCCCO)CC(=O)NO`, the inhibition constant Ki worked out at 4 nM.
